Measurements taken from US20220128542A1, “TREATMENT EFFICIENCY EVALUATION” (TX MEDIC AB, priority 2019, published 2022).

Experiments:
[1] = tested on: Human umbilical vein endothelial cells (HUVECs); assay: Gene expression array and pathway/upstream regulator analysis in HUVECs (Example 2); type: cell-based; settings: for differentially expressed genes: HUVEC
Method: (§1) For each cell line, n=8×25 cm^2 culture flasks were set up. Two flasks were harvested for each cell type on the day of treatment (24 hours after seeding). This represents the Day0 time point. From the remaining flasks, three flasks were treated with Control Medium and three were treated with Culture Medium (CM) containing LMW-DS to give a final concentration of 0.01 mg/ml. Cells from the treated flasks were collected after 48 hours. Therefore the collected data represent (a) untreated cells (Day0 Controls and Day2 Controls) and (b) cells treated with LMW-DS for 48 hours (Day2 LMW-DS treated).
(§2) 25 cm^2 flasks were coated by adding 2 ml per flask of a solution of 50 μg/ml poly-d-lysine in Hank's balanced salt solution (HBSS) and incubating overnight at 37° C. in the dark. Flasks were washed with cell culture water and air-dried for 30 min in the dark. Flasks were coated by adding 1 ml per flask of a solution of 25 μg/ml laminin in phosphate-buffered saline (PBS) and incubating for 2 hour at 37° C. in the dark. The laminin flasks were washed with PBS three times before plating cells.
Medium 200+Large Vessel Endothelial Supplement (M200+LVES) additive (1:50) was prepared and pre-warmed to 37° C. Cells were thawed in a 37° C. water bath for no longer than 2 min and gently transferred into a 50 ml tube containing 20 ml Dulbecco's Modified Eagle Medium, Nutrient Mixture F-12 (DMEM-F12). The cell suspension was mixed by inverting the tube carefully twice. Cells were spun at 400×g for 10 minutes. Supernatant removed and cells were re-suspended in 10 ml of culture media (M200+LVES additive).
Cells were counted with the Cellometer. 1,000,000 cells/flask were seeded in 25 cm^2 flasks (n=8) and medium was topped up to a total of 5 ml per flask. Cells were incubated at 37° C. with 5% CO2. Cells were allowed to settle for 24 hours before LMW-DS treatment.
(§3) A fresh 100× LMW-DS stock (1.0 mg/ml) was prepared in sterile DMEM-F12. The concentrated drug stock was sterile filtered and added to the respective culture media (19.6 ml CM and 0.4 ml LMW-DS stock solution). The Control was made using 19.6 ml CM and 0.4 ml of DMEM-F12. LMW-DS and CM were added to the respective flasks (5 ml each) to reach the 0.01 mg/ml concentration of LMW-DS in each dish with a total of 10 ml CM each.
(§4) CM was aspirated into a clean and labelled 15 ml Falcon tube. The flasks (without culture medium) were placed into the −80° C. freezer for 30 minutes. The CM in the Falcon tubes was spun at 3000×g for 5 minutes. Supernatant was removed and the small pellet was re-suspended in 2.5 ml Trizol:Water (4:1) solution at room temperature (RT, ˜22° C.).
(§5) The frozen flasks were removed one-by one from the freezer and the Trizol-Water from the appropriate tubes was moved to the flask. Flasks were left at RT for 5 minutes before the content was aspirated back into the 15 ml Falcon tube (after washing the bottom of the flask with the solution thoroughly). The flasks were inspected under the microscope to ensure full removal of cells. The collected lysates in the 15 ml Falcon tubes were placed into the −80° C. freezer.
(§6) Falcon tubes containing the homogenates were removed from the freezer and stored for 5 minutes at RT to permit the complete dissociation of nucleoprotein complexes.
(§7) Two aliquots of 1 ml lysate were removed from each sample and 200 μl of chloroform was added to each (0.2 ml of chloroform per 1 ml of TRIzol Reagent used during the cell lysis step) and the tube was shaken vigorously. Samples were stored at RT for 2-3 minutes and subsequently centrifuged at 12,000×g for 15 minutes at 4° C.
The mixture separated into three layers: a lower red phenol-chloroform phase, an interphase and a colorless upper aqueous phase. The RNA remained in the top aqueous phase, DNA in the white middle (interphase) phase and protein in the pink bottom (organic) phase. The top ¾ of the aqueous phase was transferred to a new clean Eppendorf tube. […]

Human Schwann cells = assay: Gene expression array and pathway/upstream regulator analysis in Schwann cells (Example 2); type: cell-based; settings: 0.01 mg/ml
Method: as §1, §2
Schwann cells growth medium was prepared by adding 10% of fetal bovine serum (FBS) to high-glucose DMEM and pre-warmed to 37° C. Cells were thawed in a 37° C. water bath for no longer than 2 min.
Cells from 12 vials were each gently transferred to a tube containing 10 ml of high-glucose DMEM medium and centrifuged at 400 relative centrifugal field (RCF) for 10 min. Pellet was re-suspended in culture medium. The cells from the 12 vials were mixed and distributed equally into the previously coated 25 cm^2 flasks (n=8). Cells were incubated at 37° C. with 5% CO2. Cells were allowed to settle for 24 hours before LMW-DS treatment.
as §3, §4, §5, §6, §7
The mixture separated into three layers: a lower red phenol-chloroform phase, an interphase and a colorless upper aqueous phase. The RNA remained in the top aqueous phase, DNA in the white middle (interphase) phase and protein in the pink bottom (organic) phase. The top ¾ of the aqueous phase was transferred to a new clean Eppendorf tube.
The RNA was precipitated from the aqueous phase by adding an equal amount of 100% ethanol. The precipitated RNA was fixed onto a Spin Cartridge, washed twice and dried. […]

## sodium salt of dextran sulfate [LMW-DS]
[1]; D0 control vs D2 LMW-DS treated, 0.01 mg/ml
  differentially expressed genes: 1779 genes
[1]; D2 control vs D2 LMW-DS treated, 0.01 mg/ml
  differentially expressed genes: 76 genes
[1]; HUVECs
  cell adhesion: not affected
[1]; HUVECs, 0.01 mg/ml, 48 hours
  number of genes: no effect / abolished nutrient effect: 67
  number of genes: no effect / total: 67
  number of genes: significant downregulation / abolished nutrient effect: 4
  number of genes: significant downregulation / enhanced response to nutrients: 120
  number of genes: significant downregulation / not different from control: 167
  number of genes: significant downregulation / total: 291
  number of genes: significant upregulation / abolished nutrient effect: 11
  number of genes: significant upregulation / enhanced response to nutrients: 229
  number of genes: significant upregulation / not different from control: 1326
  number of genes: significant upregulation / total: 1566
  number of genes: total / abolished nutrient effect: 82
  number of genes: total / enhanced response to nutrients: 349
  number of genes: total / not different from control: 1493
  number of genes: total / total: 1924
Human Schwann cells; 48 hours
  number of genes: no effect / abolished nutrient effect: 21
  number of genes: no effect / total: 21
  number of genes: significant downregulation / abolished nutrient effect: 1
  number of genes: significant downregulation / enhanced response to nutrients: 122
  number of genes: significant downregulation / new effect induced by LMW-DS: 352
  number of genes: significant downregulation / not different from control: 42
  number of genes: significant downregulation / total: 517
  number of genes: significant upregulation / abolished nutrient effect: 13
  number of genes: significant upregulation / enhanced response to nutrients: 441
  number of genes: significant upregulation / new effect induced by LMW-DS: 74
  number of genes: significant upregulation / not different from control: 373
  number of genes: significant upregulation / total: 901
  number of genes: total / abolished nutrient effect: 35
  number of genes: total / enhanced response to nutrients: 563
  number of genes: total / new effect induced by LMW-DS: 426
  number of genes: total / not different from control: 415
  number of genes: total / total: 1439
Human Schwann cells; D0 control vs D2 LMW-DS treated
  differentially expressed genes: 1244 genes
Human Schwann cells; D2 control vs D2 LMW-DS treated
  differentially expressed genes: 700 genes
